Experimental data published in article doi:10.1101/2025.11.04.686469, “Discovery of Host-Directed Small Molecules with Broad Anti-Leishmanial Efficacy” (bioRxiv, 2025).

Test system: THP-1 macrophages
Experiment: Effect of compounds on host cell viability (MTT)
Format: cell-based
Conditions: read-out: 24h LC50; THP1 macrophages, 24-hour incubation, MTT assay (Supplemental Table 2)
Method: The cells were cultured at 37C, 5% CO2 in RPMI medium (ATCC) supplemented with 10% FBS, 1% Penicillin/Streptomycin and 0.05 mM of β-mercaptoethanol. Cells were used in experiments up to passage 10.
Effect of the compounds on THP-1 cell viability measured using thiazolyl blue tetrazolium bromide which measures cell metabolic activity (MTT). THP-1 cells were seeded in a 96 well plate (25,000 cells/well) overnight then differentiated with 150 nM phorbol 12-myristate 13-acetate (PMA) over 72 hours. Macrophages were then treated with compounds resuspended in RPMI media (1- 50 μM) for 24 hours. Media was replaced with thiazolyl blue tetrazolium bromide solubilized in RPMI media (0.5 mg/mL) and incubated at 37°C for 2 hours. The reduced formazan crystals were solubilized with isopropyl alcohol and the absorbance of the resulting solution was measured at 560 nm with a background subtraction at 670 nm. […] This process was repeated with a 72-hr incubation and extended concentration range (1 - 300 μM) for select compounds.

With `FC(F)(F)c1ccc(-c2cnnn2-c2ccc(NC3CCNCC3)cc2)cc1` [Compound 434] the CC50 was 24.6 µM.

`FC(F)(F)c1cc(-c2ccc(-c3ccc(S(F)(F)(F)(F)F)cc3)cc2)n(-c2ccc(N3CCNCC3)cc2)n1` [Compound 46] was tested, and the CC50 was 10 µM.

With `FC(F)(F)c1cc(C2CCCCC2)n(-c2ccc(OC3CCN(Cc4ccccc4)C3)cc2)n1` (stereo not drawn) [Compound 378] the CC50 was > 50 µM.

With `CC(C)(C)OC(=O)N1CCC(Oc2ccc(-n3nc(C(F)(F)F)cc3-c3ccc(-c4ccc(C(F)(F)F)cc4)cc3)cc2)CC1` [Compound 28] the CC50 was > 50 µM.

In the case of `Nc1ccc(-n2cc(C(F)(F)F)nc2-c2ccc(Cl)cc2)cc1` [Compound 30], the CC50 was > 50 µM.

For `FC(F)(F)c1ccc(-c2ccc(-c3cc(C(F)(F)F)nn3-c3ccc(N4CCC(NCc5ccc6ccccc6c5)C4)cc3)cc2)cc1` (stereo not drawn) [Compound 17], the CC50 was > 50 µM.

`FC(F)(F)c1ccc(-c2ccc(-c3cc(C(F)(F)F)nn3-c3ccc(N4CCC(NCc5cccs5)C4)cc3)cc2)cc1` (stereo not drawn) [Compound 20] was tested, and the CC50 was > 50 µM.

In the case of `CC(C)(C)OC(=O)N1CCC(Nc2ccc(-n3nc(C(F)(F)F)cc3C(F)(F)F)cc2)C1` (stereo not drawn) [Compound 283], the CC50 was > 50 µM.

For `FC(F)(F)c1ccc(CNC2CCN(c3ccc(-n4nc(C(F)(F)F)cc4-c4ccc(-c5ccc(C(F)(F)F)cc5)cc4)cc3)C2)cc1` (stereo not drawn) [Compound 24], the CC50 was > 50 µM.

`O=C(OCc1ccccc1)N1CCC(Nc2ccc(-n3nc(C(F)(F)F)cc3-c3ccc(-c4ccc(C(F)(F)F)cc4)cc3)cc2)C1` (stereo not drawn) [Compound 6] was tested, and the CC50 was > 50 µM.

For `Fc1cccc(CN2CCC(Oc3ccc(-n4nc(C(F)(F)F)cc4C4CCCCC4)cc3)CC2)c1` [Compound 372], the CC50 was > 50 µM.

With `O=[N+]([O-])c1ccc(-n2nc(C3CCCCC3)cc2C(F)(F)F)cc1` [Compound 335] the CC50 was > 50 µM.

With `CC(C)c1cc(C(F)(F)F)nn1-c1ccc(NC2CCN(C(=O)OC(C)(C)C)C2)cc1` (stereo not drawn) [Compound 286] the CC50 was > 50 µM.

For `O=C(c1ccc(F)cc1)N1CCC(Nc2ccc(-n3nc(C(F)(F)F)cc3-c3ccc(-c4ccc(C(F)(F)F)cc4)cc3)cc2)C1` (stereo not drawn) [Compound 59], the CC50 was > 50 µM.

For `FC(F)(F)c1cn(-c2ccc(NC3CCNC3)cc2)c(-c2ccncc2)n1` (stereo not drawn) [Compound 333], the CC50 was > 50 µM.

Compound `CC(=O)NCCN1CCC(Oc2ccc(-n3nc(C(F)(F)F)cc3C3CCCCC3)cc2)CC1` [Compound 417] has a CC50 of 24.4 µM.

In the case of `FC(F)(F)c1c[nH]c(-c2ccc(Cl)cc2)n1` [Compound 35], the CC50 was > 50 µM.

For `N#Cc1ccc(CN2CCC(Nc3ccc(-n4nc(C(F)(F)F)cc4C4CCCCC4)cc3)CC2)cc1` [Compound 389], the CC50 was > 50 µM.

In the case of `Cc1cc(C(F)(F)F)n(-c2ccc(Br)cc2)n1` [Compound 274], the CC50 was > 50 µM.

With `CC(=O)NCCCOc1ccc(CN2CCC(Oc3ccc(-n4nc(C(F)(F)F)cc4C4CCCCC4)cc3)CC2)cc1` [Compound 430] the CC50 was 16.5 µM.

In the case of `FC(F)(F)c1cc(C2CC2)n(-c2ccc(Br)cc2)n1` [Compound 266], the CC50 was > 50 µM.

`COc1ccc(-n2nc(C(F)(F)F)cc2C2CCCCC2)cc1` [Compound 363] was tested, and the CC50 was > 50 µM.

In the case of `CC(C)(C)OC(=O)NC1CN(c2ccc(-n3nc(C(F)(F)F)cc3-c3ccc(-c4ccc(C(F)(F)F)cc4)cc3)cc2)C1` [Compound 22], the CC50 was > 50 µM.

In the case of `CC(C)(C)c1nc(C(F)(F)F)cn1-c1ccc(Br)cc1` [Compound 329], the CC50 was > 50 µM.

`COc1ccc(-n2nc(C(F)(F)F)cc2-c2ccc(-c3ccc(C(F)(F)F)cc3)cc2)cc1` [Compound 26] gave a CC50 of 5.8 µM.

`NC(=O)CN1c2ccccc2C2CCCC21` (stereo not drawn) [Compound 320] was tested, and the CC50 was > 50 µM.

For `CCCCCCNc1ccc(-n2nc(C(F)(F)F)cc2-c2ccc(-c3ccc(C(F)(F)F)cc3)cc2)cc1` [Compound 60], the CC50 was > 50 µM.

`OCCn1nc(C(F)(F)F)cc1-c1ccc(C(F)(F)F)cc1` [Compound 293] was tested, and the CC50 was > 50 µM.

For `CC(C)(C)OC(=O)N1CC(Nc2ccc(-n3nc(C(F)(F)F)cc3-c3ccc(-c4ccc(C(F)(F)F)cc4)cc3)cc2)C1` [Compound 56], the CC50 was > 50 µM.

Work on `O=[N+]([O-])c1ccc(-n2cc(C(F)(F)F)nc2-c2ccc(-c3ccccc3)cc2)cc1` [Compound 32] yielded a CC50 of 6.3 µM.

For `O=[N+]([O-])c1ccc(-n2nc(-c3ccc(Br)cc3)cc2C(F)(F)F)cc1` [Compound 38], the CC50 was > 50 µM.

`FC(F)(F)c1ccc(-c2ccc(-c3cc(C(F)(F)F)nn3-c3ccc(Br)cc3)cc2)cc1` [Compound 2] was tested, and the CC50 was > 50 µM.

`FC(F)(F)c1cc(C2CCCCC2)n(-c2ccc(N3CCC(OCc4ccccc4)C3)cc2)n1` (stereo not drawn) [Compound 412] was tested, and the CC50 was > 50 µM.

For `Cc1cc(C(F)(F)F)n(-c2ccc(NC3CCN(C(=O)OC(C)(C)C)C3)cc2)n1` (stereo not drawn) [Compound 282], the CC50 was > 50 µM.

For `CC(C)(C)OC(=O)N1CCN(c2ccc(-n3nc(C(F)(F)F)cc3-c3ccc(C#CC(F)(F)F)cc3)cc2)CC1` [Compound 47], the CC50 was > 50 µM.

In the case of `Cc1cc(C(F)(F)F)nn1-c1ccc(NC2CCNC2)cc1` (stereo not drawn) [Compound 313], the CC50 was > 50 µM.

Work on `CC(C)(C)OC(=O)N1CCC(Nc2ccc(-n3nc(C(F)(F)F)cc3-c3ccccc3C(F)(F)F)cc2)C1` (stereo not drawn) [Compound 259] yielded a CC50 of 23.6 µM.

With `N#Cc1ccc(-n2cc(C(F)(F)F)nc2-c2ccc(Br)cc2)c(F)c1` [Compound 291] the CC50 was > 50 µM.

With `FC(F)(F)c1ccc(-c2ccc(-c3cc(C(F)(F)F)nn3-c3ccc(NC4CN(C(c5ccccc5)c5ccccc5)C4)cc3)cc2)cc1` [Compound 4] the CC50 was > 50 µM.

`CC(C)C#Cc1ccc(-c2cc(C(F)(F)F)nn2-c2ccc(N3CCC(NCc4ccc(O)cc4)C3)cc2)cc1` (stereo not drawn) [Compound 101] gave a CC50 of 0.5 µM.

For `Fc1cccc(CN2CCC(Oc3ccc(-n4nc(C(F)(F)F)cc4C4CCCCC4)cc3)C2)c1` (stereo not drawn) [Compound 376], the CC50 was > 50 µM.

Compound `C#Cc1ccc(-c2cc(C(F)(F)F)nn2-c2ccc(N3CCNCC3)cc2)cc1` [Compound 43] has a CC50 of 0.5 µM.

In the case of `NCC(=O)Nc1ccc(-n2cc(C(F)(F)F)nc2-c2ccc(OC(F)(F)F)cc2)cc1` [Compound 299], the CC50 was 31.6 µM.

With `FC(F)(F)c1cc(-c2ccc(Cl)c(Cl)c2)n(-c2ccc(NC3CCNC3)cc2)n1` (stereo not drawn) [Compound 261] the CC50 was 22.4 µM.

`NCC(=O)Nc1ccc(-n2cc(C(F)(F)F)nc2-c2ccccc2C(F)(F)F)cc1` [Compound 297] was tested, and the CC50 was > 50 µM.

`CC(C)(C)OC(=O)N1CCC(Nc2ccc(-n3nc(C(F)(F)F)cc3C3CC3)cc2)C1` (stereo not drawn) [Compound 268] was tested, and the CC50 was > 50 µM.

Compound `O=C(CNCc1cccc(F)c1)Nc1ccc(-n2nc(C(F)(F)F)cc2C2CCCCC2)cc1` [Compound 352] has a CC50 of 29.3 µM.

In the case of `CC(C)c1cc(C(F)(F)F)nn1-c1ccc(Br)cc1` [Compound 277], the CC50 was > 50 µM.

With `O=[N+]([O-])c1ccc(-n2cc(C(F)(F)F)nc2-c2ccc(Cl)cc2)cc1` [Compound 29] the CC50 was > 50 µM.

`Nc1ccc(-n2nc(C(F)(F)F)cc2-c2ccc(Br)cc2)cc1` [Compound 40] was tested, and the CC50 was > 50 µM.

In the case of `Fc1cccc(CNC2CCN(c3ccc(-n4nc(C(F)(F)F)cc4C4CCCCC4)cc3)C2)c1` (stereo not drawn) [Compound 285], the CC50 was > 50 µM.

With `FC(F)(F)c1ccc(-c2ccc(-c3cc(C(F)(F)F)nn3-c3ccc(N4CCC(NCc5ccccc5)C4)cc3)cc2)cc1` (stereo not drawn) [Compound 16] the CC50 was > 50 µM.

In the case of `CC(C)(C)OC(=O)NCC(=O)Nc1ccc(-n2nc(C(F)(F)F)cc2C2CCCCC2)cc1` [Compound 340], the CC50 was > 50 µM.

`Cc1ccccc1CNC1CN(c2ccc(-n3nc(C(F)(F)F)cc3-c3ccc(-c4ccc(C(F)(F)F)cc4)cc3)cc2)C1` [Compound 48] was tested, and the CC50 was > 50 µM.

For `CCOC(=O)CNc1ccc(-n2cc(C(F)(F)F)nc2-c2ccc(C(F)(F)F)cc2)cc1` [Compound 403], the CC50 was > 50 µM.

`NCC(=O)Nc1ccc(-n2cc(C(F)(F)F)nc2C2CCCCC2)cc1` [Compound 327] was tested, and the CC50 was > 50 µM.

With `N#Cc1ccc(CN2CCC(Nc3ccc(-n4nc(C(F)(F)F)cc4C4CCCCC4)cc3)C2)cc1` (stereo not drawn) [Compound 358] the CC50 was 13.2 µM.

Work on `NCCNC1CCN(c2ccc(-n3nc(C(F)(F)F)cc3C3CCCCC3)cc2)CC1` [Compound 418] yielded a CC50 of 12.6 µM.

In the case of `CC(C)(C)OC(=O)N1CCC(Oc2ccc(-n3nc(C(F)(F)F)cc3C3CCCCC3)cc2)CC1` [Compound 367], the CC50 was > 50 µM.

For `CCc1cc(C(F)(F)F)nn1-c1ccc(NC2CCN(C(=O)OC(C)(C)C)C2)cc1` (stereo not drawn) [Compound 317], the CC50 was > 50 µM.

For `Cc1cc(C(F)(F)F)nn1-c1ccc(Br)cc1` [Compound 275], the CC50 was > 50 µM.

With `CCc1cc(-c2ccc(-c3ccc(C(F)(F)F)cc3)cc2)n(-c2ccc(Br)cc2)n1` [Compound 280] the CC50 was > 50 µM.

In the case of `Nc1ccc(-n2cc(C(F)(F)F)nc2-c2ccc(-c3ccccc3)cc2)cc1` [Compound 33], the CC50 was 1.5 µM.

For `FC(F)(F)c1cc(C2CCCCC2)n(-c2ccc(N3CCC(OCc4ccccc4)CC3)cc2)n1` [Compound 414], the CC50 was > 50 µM.

In the case of `NCC(=O)NCCn1cc(C(F)(F)F)nc1-c1ccc(C(F)(F)F)cc1` [Compound 295], the CC50 was > 50 µM.

With `Nc1ccc(-n2nc(C(F)(F)F)cc2C2CCCCC2)cc1` [Compound 338] the CC50 was > 50 µM.

`Oc1ccc(-n2nc(C(F)(F)F)cc2-c2ccc(-c3ccc(C(F)(F)F)cc3)cc2)cc1` [Compound 27] was tested, and the CC50 was > 50 µM.

Compound `COc1ccc(CNC2CCN(c3ccc(-n4nc(C(F)(F)F)cc4-c4ccc(-c5ccc(C(F)(F)F)cc5)cc4)cc3)C2)cc1` (stereo not drawn) [Compound 14] has a CC50 of 50 µM.

`FC(F)c1cc(-c2ccc(-c3ccc(C(F)(F)F)cc3)cc2)n(-c2ccc(Br)cc2)n1` [Compound 279] was tested, and the CC50 was > 50 µM.

With `Fc1cccc([C@@H]2CCCN2)c1` [Compound 278] the CC50 was > 50 µM.

With `Fc1cccc(CN2CCC(Nc3ccc(-n4nc(C(F)(F)F)cc4C4CCCCC4)cc3)CC2)c1` [Compound 322] the CC50 was > 50 µM.

With `FC(F)(F)c1ccc(-c2ccc(-c3cc(C(F)(F)F)nn3-c3ccc(NC4CCN(Cc5cccc(Cl)c5Cl)C4)cc3)cc2)cc1` (stereo not drawn) [Compound 52] the CC50 was > 50 µM.
